Results as given in the NIST ThermoML archive (doi:10.1016/j.jct.2006.10.008).
Numbers after ± are expanded uncertainties.

Columns and labels:
[1] = xn = mol fraction of the nth substance listed; conditions: 298.15 K, 101 kPa, Liquid
[2] = excess molar enthalpy (molar enthalpy of mixing); xn = mol fraction of the nth substance listed; conditions: 298.15 K, 101 kPa, Liquid, Calvet calorimetry

ClCCCCCCl [1,5-dichloropentane] + CCOC=O
Conditions	excess molar enthalpy [kcal/mol]	mass density [kg/m3]
[1], x2 = 0.0955	–	1084.27 ± 0.49
[1], x2 = 0.1752	–	1074.48 ± 0.47
[1], x2 = 0.2534	–	1064.51 ± 0.45
[1], x2 = 0.3284	–	1054.28 ± 0.43
[1], x2 = 0.3985	–	1044.1 ± 0.41
[1], x2 = 0.4628	–	1034.31 ± 0.39
[1], x2 = 0.5327	–	1023.03 ± 0.37
[1], x2 = 0.5897	–	1013.34 ± 0.35
[1], x2 = 0.6456	–	1003.36 ± 0.33
[1], x2 = 0.698	–	993.61 ± 0.33
[1], x2 = 0.7473	–	983.9 ± 0.34
[1], x2 = 0.7941	–	974.37 ± 0.35
[1], x2 = 0.8401	–	964.52 ± 0.36
[1], x2 = 0.8829	–	954.89 ± 0.38
[1], x2 = 0.9235	–	945.49 ± 0.39
[1], x2 = 0.9625	–	936.01 ± 0.4
[2], x2 = 0.1024	0.0337 ± 0.000454	–
[2], x2 = 0.2043	0.0534 ± 0.000598	–
[2], x2 = 0.2974	0.0705 ± 0.000741	–
[2], x2 = 0.3848	0.0801 ± 0.000813	–
[2], x2 = 0.4598	0.0825 ± 0.000837	–
[2], x2 = 0.5273	0.081 ± 0.000813	–
[2], x2 = 0.5845	0.0767 ± 0.000789	–
[2], x2 = 0.6305	0.071 ± 0.000741	–
[2], x2 = 0.6809	0.062 ± 0.000669	–
[2], x2 = 0.7286	0.0551 ± 0.000621	–
[2], x2 = 0.7798	0.0454 ± 0.00055	–
[2], x2 = 0.8289	0.0355 ± 0.000478	–
[2], x2 = 0.8791	0.0261 ± 0.000406	–
[2], x2 = 0.9215	0.0166 ± 0.000335	–
[2], x2 = 0.9634	0.0075 ± 0.000263	–

ClCCCCCCl [1,5-dichloropentane] + COC=O
Conditions	excess molar enthalpy [kcal/mol]	mass density [kg/m3]
[1], x2 = 0.1169	–	1086.48 ± 0.49
[1], x2 = 0.2211	–	1077.88 ± 0.48
[1], x2 = 0.3054	–	1070.16 ± 0.46
[1], x2 = 0.3849	–	1062.32 ± 0.45
[1], x2 = 0.4622	–	1054 ± 0.43
[1], x2 = 0.5291	–	1046.2 ± 0.41
[1], x2 = 0.5925	–	1038.15 ± 0.4
[1], x2 = 0.6496	–	1030.38 ± 0.38
[1], x2 = 0.7004	–	1022.87 ± 0.37
[1], x2 = 0.7481	–	1015.48 ± 0.35
[1], x2 = 0.792	–	1008.18 ± 0.34
[1], x2 = 0.8333	–	1001 ± 0.32
[1], x2 = 0.8711	–	993.92 ± 0.33
[1], x2 = 0.9066	–	986.88 ± 0.34
[1], x2 = 0.94	–	980.05 ± 0.35
[1], x2 = 0.9705	–	973.45 ± 0.35
[2], x2 = 0.1095	0.0523 ± 0.000598	–
[2], x2 = 0.2232	0.0884 ± 0.000884	–
[2], x2 = 0.3299	0.1192 ± 0.00112	–
[2], x2 = 0.4118	0.1356 ± 0.00124	–
[2], x2 = 0.4763	0.1457 ± 0.00131	–
[2], x2 = 0.5269	0.1465 ± 0.00131	–
[2], x2 = 0.5661	0.1483 ± 0.00134	–
[2], x2 = 0.613	0.1504 ± 0.00136	–
[2], x2 = 0.6627	0.1476 ± 0.00134	–
[2], x2 = 0.7114	0.1441 ± 0.00129	–
[2], x2 = 0.7734	0.1339 ± 0.00122	–
[2], x2 = 0.8369	0.1151 ± 0.0011	–
[2], x2 = 0.88	0.09362 ± 0.000932	–
[2], x2 = 0.9328	0.0669 ± 0.000741	–
[2], x2 = 0.9693	0.0361 ± 0.000574	–

ClCCCCCCCl [1,6-dichlorohexane] + CCCCOC=O
Conditions	excess molar enthalpy [kcal/mol]	mass density [kg/m3]
[1], x2 = 0.074	–	1053.56 ± 0.43
[1], x2 = 0.1444	–	1043.66 ± 0.41
[1], x2 = 0.2217	–	1032.43 ± 0.39
[1], x2 = 0.2795	–	1023.76 ± 0.37
[1], x2 = 0.3441	–	1013.82 ± 0.35
[1], x2 = 0.4081	–	1003.67 ± 0.33
[1], x2 = 0.5278	–	983.77 ± 0.34
[1], x2 = 0.586	–	973.68 ± 0.35
[1], x2 = 0.641	–	963.84 ± 0.37
[1], x2 = 0.702	–	952.63 ± 0.38
[1], x2 = 0.7544	–	942.71 ± 0.39
[1], x2 = 0.856	–	922.68 ± 0.41
[1], x2 = 0.9056	–	912.53 ± 0.43
[1], x2 = 0.9528	–	902.59 ± 0.44
[2], x2 = 0.095	0.006 ± 0.000239	–
[2], x2 = 0.1874	0.00985 ± 0.000263	–
[2], x2 = 0.2768	0.0102 ± 0.000263	–
[2], x2 = 0.3583	0.00722 ± 0.000239	–
[2], x2 = 0.4321	0.00131 ± 0.000191	–
[2], x2 = 0.4949	-0.00696 ± 0.000239	–
[2], x2 = 0.5195	-0.00906 ± 0.000263	–
[2], x2 = 0.5526	-0.0129 ± 0.000287	–
[2], x2 = 0.566	-0.0141 ± 0.000287	–
[2], x2 = 0.616	-0.0186 ± 0.000335	–
[2], x2 = 0.6674	-0.0208 ± 0.000359	–
[2], x2 = 0.7246	-0.0205 ± 0.000335	–
[2], x2 = 0.7832	-0.0183 ± 0.000335	–
[2], x2 = 0.8346	-0.0157 ± 0.000311	–
[2], x2 = 0.892	-0.0102 ± 0.000263	–
[2], x2 = 0.9474	-0.0059 ± 0.000239	–

ClCCCCCCCl [1,6-dichlorohexane] + CCOC=O
Conditions	excess molar enthalpy [kcal/mol]	mass density [kg/m3]
[1], x2 = 0.0997	–	1055.27 ± 0.43
[1], x2 = 0.196	–	1046.53 ± 0.41
[1], x2 = 0.28	–	1038.19 ± 0.4
[1], x2 = 0.3577	–	1029.9 ± 0.38
[1], x2 = 0.4304	–	1021.49 ± 0.36
[1], x2 = 0.4965	–	1013.36 ± 0.35
[1], x2 = 0.558	–	1005.21 ± 0.33
[1], x2 = 0.6159	–	997.06 ± 0.33
[1], x2 = 0.67	–	988.91 ± 0.34
[1], x2 = 0.7203	–	980.91 ± 0.35
[1], x2 = 0.7675	–	973 ± 0.35
[1], x2 = 0.8114	–	965.17 ± 0.36
[1], x2 = 0.8538	–	957.24 ± 0.37
[1], x2 = 0.893	–	949.58 ± 0.38
[1], x2 = 0.9301	–	941.93 ± 0.39
[1], x2 = 0.9649	–	934.51 ± 0.4
[2], x2 = 0.102	0.0409 ± 0.000526	–
[2], x2 = 0.205	0.0712 ± 0.000741	–
[2], x2 = 0.2968	0.09352 ± 0.000908	–
[2], x2 = 0.3852	0.1054 ± 0.001	–
[2], x2 = 0.4641	0.1101 ± 0.00103	–
[2], x2 = 0.5316	0.1113 ± 0.00105	–
[2], x2 = 0.5845	0.1095 ± 0.00103	–
[2], x2 = 0.6442	0.1042 ± 0.001	–
[2], x2 = 0.6907	0.09704 ± 0.000932	–
[2], x2 = 0.7399	0.08726 ± 0.00086	–
[2], x2 = 0.7869	0.0732 ± 0.000765	–
[2], x2 = 0.8348	0.0598 ± 0.000669	–
[2], x2 = 0.8829	0.0418 ± 0.000526	–
[2], x2 = 0.9248	0.0285 ± 0.00043	–
[2], x2 = 0.9656	0.0148 ± 0.000335	–
